What follows are molecules tested against Xanthine oxidase (from bovine milk, Sigma) (Bos taurus (Bovine), UniProt P80457) (assay: Xanthine oxidase inhibitory activity). Conditions: 100 μM xanthine final, absorbance at 290 nm.
Format: biochemical
Description: (1) Preparation of Test Compounds
Test compounds were dissolved in DMSO (Wako) at 40 mM concentration and then diluted to intended concentrations with phosphate-buffered saline (PBS).
(2) Method for Measurement
Xanthine oxidase (from bovine milk, Sigma) was prepared with phosphate-buffered saline (PBS) at 0.02 units/mL, and then the solution was added to 96 well plates at 50 μL/well. In addition, test compounds diluted with PBS were added at 50 μL/well. Xanthine (Wako) at 200 μM prepared with PBS was added at 100 μL/well, and the reaction was conducted for 10 minutes at room temperature. Absorbance at 290 nm was measured using a microplate reader SpectraMax Plus 384 (Molecular device). The absorbance under a condition without xanthine is 0%, and control without test compounds is 100%. Fifty % inhibitory concentration of a test compound (IC50) was calculated (Tables 91 to 92). Ex. No in the table indicates Example number.

Xanthine oxidase (from bovine milk, Sigma), sequence (P80457 whole entry): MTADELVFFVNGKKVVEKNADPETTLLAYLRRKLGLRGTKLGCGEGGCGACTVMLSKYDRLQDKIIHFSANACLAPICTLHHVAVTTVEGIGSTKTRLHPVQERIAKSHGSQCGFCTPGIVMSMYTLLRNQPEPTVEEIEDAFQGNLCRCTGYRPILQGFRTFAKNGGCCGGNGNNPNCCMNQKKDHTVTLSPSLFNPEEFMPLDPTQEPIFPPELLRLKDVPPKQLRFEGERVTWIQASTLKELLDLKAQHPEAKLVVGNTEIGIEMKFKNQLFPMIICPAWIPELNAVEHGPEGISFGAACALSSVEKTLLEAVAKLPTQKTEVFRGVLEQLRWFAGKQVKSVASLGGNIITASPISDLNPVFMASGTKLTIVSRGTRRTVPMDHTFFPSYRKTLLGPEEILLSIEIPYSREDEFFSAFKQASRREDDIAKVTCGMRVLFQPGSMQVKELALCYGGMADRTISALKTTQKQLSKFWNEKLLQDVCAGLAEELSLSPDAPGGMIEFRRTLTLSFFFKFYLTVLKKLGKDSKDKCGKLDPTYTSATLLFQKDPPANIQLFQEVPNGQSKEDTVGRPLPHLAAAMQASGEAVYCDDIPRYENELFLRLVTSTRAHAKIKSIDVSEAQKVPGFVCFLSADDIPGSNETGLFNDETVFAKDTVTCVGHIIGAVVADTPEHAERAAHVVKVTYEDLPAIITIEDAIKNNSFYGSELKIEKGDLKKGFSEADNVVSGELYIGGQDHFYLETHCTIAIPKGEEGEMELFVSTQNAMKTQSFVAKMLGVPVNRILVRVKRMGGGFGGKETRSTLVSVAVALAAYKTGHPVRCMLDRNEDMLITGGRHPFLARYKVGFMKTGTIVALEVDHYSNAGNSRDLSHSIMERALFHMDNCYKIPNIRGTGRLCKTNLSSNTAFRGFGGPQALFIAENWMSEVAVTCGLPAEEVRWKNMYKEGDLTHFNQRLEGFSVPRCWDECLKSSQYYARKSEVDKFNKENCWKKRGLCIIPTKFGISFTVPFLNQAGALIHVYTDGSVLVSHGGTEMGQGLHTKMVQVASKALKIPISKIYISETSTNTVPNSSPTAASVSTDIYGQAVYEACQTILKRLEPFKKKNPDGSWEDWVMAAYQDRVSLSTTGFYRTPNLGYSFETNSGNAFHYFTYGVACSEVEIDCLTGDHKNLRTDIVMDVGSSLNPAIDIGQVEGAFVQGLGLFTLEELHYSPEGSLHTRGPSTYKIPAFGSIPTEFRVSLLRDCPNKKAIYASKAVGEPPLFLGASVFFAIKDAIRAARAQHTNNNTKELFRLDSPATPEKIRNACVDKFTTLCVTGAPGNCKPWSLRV

SMILES	IC50
N#Cc1cn(-c2ccc(C(=O)O)c(O)c2)cc1-c1cccn1-c1ccccc1 [Example 304]	15.1 nM
Cc1ccccc1-c1cn(-c2ccc(C(=O)O)c(O)c2)cc1C#N [Example 307]	7.5 nM
N#Cc1cn(-c2ccc(C(=O)O)c(O)c2)cc1-c1ccccc1Cl [Example 308]	7.5 nM
COc1ccccc1-c1cn(-c2ccc(C(=O)O)c(O)c2)cc1C#N [Example 309]	6.5 nM
Cc1ccsc1-c1cn(-c2ccc(C(=O)O)c(O)c2)cc1C#N [Example 311]	6.9 nM
N#Cc1cn(-c2ccc(C(=O)O)c(O)c2)cc1-c1ccc(Cl)s1 [Example 313]	5.2 nM
N#Cc1cn(-c2ccc(C(=O)O)c(O)c2)cc1-c1ccc(Cl)cc1 [Example 315]	14.6 nM
COc1ccc(-c2cn(-c3ccc(C(=O)O)c(O)c3)cc2C#N)cc1 [Example 316]	9 nM
Cc1ccc(-c2cn(-c3ccc(C(=O)O)c(O)c3)cc2C#N)cc1 [Example 317]	6.8 nM
N#Cc1cn(-c2ccc(C(=O)O)c(O)c2)cc1-c1ccccc1F [Example 319]	8.1 nM
N#Cc1cn(-c2ccc(C(=O)O)c(O)c2)cc1-c1ccc(F)cc1 [Example 320]	10.6 nM
N#Cc1cn(-c2ccc(C(=O)O)c(O)c2)cc1-c1cccc2c1OCO2 [Example 322]	6.5 nM
CCc1c(-c2ccccc2)c(C#N)cn1-c1ccc(C(=O)O)c(O)c1 [Example 327]	7.1 nM
N#Cc1ccc(-c2cn(-c3ccc(C(=O)O)c(O)c3)cc2C#N)cc1 [Example 331]	5.3 nM
N#Cc1cn(-c2ccc(C(=O)O)c(O)c2)cc1-c1ccccc1OCc1ccccc1 [Example 332]	51.5 nM
N#Cc1cn(-c2ccc(C(=O)O)c(O)c2)cc1-c1ccc(COc2ccccc2)cc1 [Example 334]	59.5 nM

SMILES	IC50
CCOc1ccccc1-c1cn(-c2ccc(C(=O)O)c(O)c2)cc1C#N [Example 335]	7.9 nM
CCCOc1ccccc1-c1cn(-c2ccc(C(=O)O)c(O)c2)cc1C#N [Example 336]	36.4 nM
N#Cc1cn(-c2ccc(C(=O)O)c(O)c2)cc1-c1ccc(O)cc1 [Example 339]	4.4 nM
CCOc1ccc(-c2cn(-c3ccc(C(=O)O)c(O)c3)cc2C#N)cc1 [Example 340]	5.8 nM
CCOc1cccc(-c2cn(-c3ccc(C(=O)O)c(O)c3)cc2C#N)c1 [Example 344]	13.5 nM
COCCOc1ccc(-c2cn(-c3ccc(C(=O)O)c(O)c3)cc2C#N)cc1 [Example 347]	12.2 nM
N#Cc1cn(-c2ccc(C(=O)O)c(O)c2)cc1-c1nccs1 [Example 348]	5.2 nM
CSc1ccc(-c2cn(-c3ccc(C(=O)O)c(O)c3)cc2C#N)cc1 [Example 350]	13.7 nM
CC(C)(C)c1nn(-c2ccc(C(=O)O)c(O)c2)cc1C#N [Example 352]	3.2 nM
N#Cc1ccn(-c2ccc(C(=O)O)c(O)c2)n1 [Example 354]	66.7 nM
Cc1cn(-c2ccc(C(=O)O)c(O)c2)cc1C#N [Example 359]	6.1 nM
Cc1ccccc1-c1cn(-c2cc(C(=O)O)ccn2)cc1C#N [Example 361]	88.5 nM
Cc1cccc(-c2cn(-c3cc(C(=O)O)ccn3)cc2C#N)c1 [Example 362]	25.6 nM
N#Cc1cn(-c2cc(C(=O)O)ccn2)cc1-c1ccc(Cl)cc1 [Example 365]	33.1 nM
COc1ccccc1-c1cn(-c2cc(C(=O)O)ccn2)cc1C#N [Example 366]	29.3 nM
COc1cccc(-c2cn(-c3cc(C(=O)O)ccn3)cc2C#N)c1 [Example 367]	25 nM

The remaining molecules from weak to strong by IC50, led by results:

IC50	SMILES
145 nM	N#Cc1cn(-c2cc(C(=O)O)ccn2)cc1-c1cccs1 [Example 360]
87.8 nM	N#Cc1cn(-c2ccc(C(=O)O)c(O)c2)cc1-c1cccc(OCc2ccccc2)c1 [Example 333]
49.4 nM	N#Cc1cn(-c2ccc(C(=O)O)c(O)c2)cc1-c1ccccc1Oc1ccccc1 [Example 303]
35.9 nM	CCCOc1ccc(-c2cn(-c3ccc(C(=O)O)c(O)c3)cc2C#N)cc1 [Example 342]
25.7 nM	COCCOc1cccc(-c2cn(-c3ccc(C(=O)O)c(O)c3)cc2C#N)c1 [Example 345]
22.7 nM	N#Cc1cn(-c2cc(C(=O)O)ccn2)cc1-c1ccccc1Cl [Example 364]
21.3 nM	Cc1ccc(-c2cn(-c3cc(C(=O)O)ccn3)cc2C#N)cc1 [Example 363]
19.9 nM	N#Cc1cccc(-c2cn(-c3ccc(C(=O)O)c(O)c3)cc2C#N)c1 [Example 330]
19.9 nM	N#Cc1cn(-c2cc(C(=O)O)ccn2)cc1C1=CCCCC1 [Example 370]
17.5 nM	Cc1ccc(-c2cn(-c3ccc(C(=O)O)c(O)c3)cc2C#N)s1 [Example 310]
17 nM	N#Cc1cn(-c2ccc(C(=O)O)c(O)c2)cc1-c1ccc(C(F)(F)F)cc1 [Example 318]
16.8 nM	CC(C)Oc1ccc(-c2cn(-c3ccc(C(=O)O)c(O)c3)cc2C#N)cc1 [Example 346]
14.7 nM	O=C(O)c1ccc(-n2ccc([N+](=O)[O-])c2)cc1O [Example 351]
13.3 nM	COc1ccc(-c2cn(-c3cc(C(=O)O)ccn3)cc2C#N)cc1 [Example 368]
13.1 nM	N#Cc1cn(-c2ccc(C(=O)O)c(O)c2)cc1-c1cccc2ccccc12 [Example 325]
10.9 nM	N#Cc1cn(-c2ccc(C(=O)O)c(O)c2)cc1-c1ccc2c(c1)OCO2 [Example 321]
10 nM	CCCOc1cccc(-c2cn(-c3ccc(C(=O)O)c(O)c3)cc2C#N)c1 [Example 341]
9.9 nM	N#Cc1cn(-c2ccc(C(=O)O)c(O)c2)cc1-c1ccccc1C(F)(F)F [Example 312]
9.7 nM	N#Cc1cn(-c2cc(C(=O)O)ccn2)cc1-c1ccc2c(c1)OCCO2 [Example 369]
9.3 nM	N#Cc1cn(-c2ccc(C(=O)O)c(O)c2)cc1-c1ccccc1-c1ccccc1 [Example 328]
8.8 nM	N#Cc1ccn(-c2ccc(C(=O)O)c(O)c2)c1 [Example 358]
7.3 nM	N#Cc1cn(-c2ccc(C(=O)O)c(O)c2)cc1-c1ccc2c(c1)OCCO2 [Example 305]
6.4 nM	CSc1ccccc1-c1cn(-c2ccc(C(=O)O)c(O)c2)cc1C#N [Example 349]
5.9 nM	N#Cc1cn(-c2ccc(C(=O)O)c(O)c2)cc1Cc1ccccc1 [Example 357]
5.7 nM	N#Cc1cn(-c2ccc(C(=O)O)c(O)c2)cc1-c1cccc(O)c1 [Example 338]
4 nM	N#Cc1cn(-c2ccc(C(=O)O)c(O)c2)cc1-c1ccc(C(=O)O)cc1 [Example 337]
1.7 nM	N#Cc1cn(-c2ccc(C(=O)O)c(O)c2)cc1-c1ccco1 [Example 356]

Source: patent publication US9023882B2, “5-membered nitrogen containing heterocyclic derivatives and pharmaceutical compositions comprising the same” (Kissei Pharmaceutical Co., Ltd., priority 2007, dated 2015)
